Our source for the relative viability values is the supplement of paper PMC10307832.

Holding throughout (test): relative viability (nuclei count vs DMSO), 5 days (fraction); higher = more cells survive
Compound in the experiment “VX-11e + Lapatinib”: CC1=CN=C(N=C1C2=CNC(=C2)C(=O)N[C@H](CO)C3=CC(=CC=C3)Cl)NC4=C(C=C(C=C4)F)Cl [VX-11e] + CS(=O)(=O)CCNCc1ccc(-c2ccc3ncnc(Nc4ccc(OCc5cccc(F)c5)c(Cl)c4)c3c2)o1 [Lapatinib] (partner 2 µM)
In short, it runs like this: (§1)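 The day after seeding in 1536-well plates, lung cancer cell lines were treated by pin tool with a single drug, or with a fixed anchor-drug dose together with five library-drug doses (not always all listed) in √10 steps. After 5 days, a combined fix-and-stain solution (final 0.05% Triton X-100, 1% formaldehyde, 1 ug/ml Hoechst) was added. Nuclei counted on 4× images gave relative viability as treated counts over vehicle counts, reported as the median of duplicate plates.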

Compound in the experiment “VX-11e + Decitabine”: CC1=CN=C(N=C1C2=CNC(=C2)C(=O)N[C@H](CO)C3=CC(=CC=C3)Cl)NC4=C(C=C(C=C4)F)Cl [VX-11e] + Nc1ncn([C@H]2C[C@H](O)[C@@H](CO)O2)c(=O)n1 [Decitabine] (partner 2 µM)
In short, it runs like this:
as §1

Compound in the experiment “VX-11e + Olaparib”: CC1=CN=C(N=C1C2=CNC(=C2)C(=O)N[C@H](CO)C3=CC(=CC=C3)Cl)NC4=C(C=C(C=C4)F)Cl [VX-11e] + O=C(c1cc(Cc2n[nH]c(=O)c3ccccc23)ccc1F)N1CCN(C(=O)C2CC2)CC1 [Olaparib] (partner 8 µM)
In short, it runs like this: as §1

Compound in the experiment “VX-11e + Luminespib”: CC1=CN=C(N=C1C2=CNC(=C2)C(=O)N[C@H](CO)C3=CC(=CC=C3)Cl)NC4=C(C=C(C=C4)F)Cl [VX-11e] + CCNC(=O)c1noc(-c2cc(C(C)C)c(O)cc2O)c1-c1ccc(CN2CCOCC2)cc1 [Luminespib] (partner 0.01 µM)
The procedure, abridged:
as §1

In the case of NCI-H596, the relative viability with VX-11e + Lapatinib (first compound 0.04 µM) is 1.2; with VX-11e + Lapatinib (first compound 0.1265 µM), 0.938; in the experiment with VX-11e + Lapatinib (first compound 0.4 µM), 0.933; with VX-11e + Lapatinib (first compound 1.265 µM), 0.917; in the experiment with VX-11e + Lapatinib (first compound 4 µM) it was 0.774; in the experiment with VX-11e + Decitabine (first compound 0.04 µM), 0.864. Further, the relative viability with VX-11e + Decitabine (first compound 0.1265 µM) was found to be 1.05; in the experiment with VX-11e + Decitabine (first compound 0.4 µM), 1.01; with VX-11e + Decitabine (first compound 1.265 µM), 0.998; in the experiment with VX-11e + Decitabine (first compound 4 µM), 0.834; in the experiment with VX-11e + Olaparib (first compound 0.04 µM) it was 0.594; with VX-11e + Olaparib (first compound 0.1265 µM), 0.657. The relative viability in the experiment with VX-11e + Olaparib (first compound 0.4 µM) stood at 0.688; with VX-11e + Olaparib (first compound 1.265 µM) it was 0.543; in the experiment with VX-11e + Olaparib (first compound 4 µM), 0.615; in the experiment with VX-11e + Luminespib (first compound 0.04 µM), 0.898; with VX-11e + Luminespib (first compound 0.1265 µM) it was 0.982; in the experiment with VX-11e + Luminespib (first compound 0.4 µM), 0.699. Also, the relative viability with VX-11e + Luminespib (first compound 1.265 µM) amounted to 0.755; in the experiment with VX-11e + Luminespib (first compound 4 µM) it was 0.765.

On to NCI-H2170, for which the relative viability with VX-11e + Lapatinib (first compound 0.04 µM) stood at 0.229; with VX-11e + Lapatinib (first compound 0.1265 µM) it was 0.259; in the experiment with VX-11e + Lapatinib (first compound 0.4 µM), 0.231; with VX-11e + Lapatinib (first compound 1.265 µM), 0.243; with VX-11e + Lapatinib (first compound 4 µM) it was 0.252; with VX-11e + Decitabine (first compound 0.04 µM) it was 0.477. For the same cell line, the relative viability with VX-11e + Decitabine (first compound 0.1265 µM) is 0.442; with VX-11e + Decitabine (first compound 0.4 µM), 0.516; with VX-11e + Decitabine (first compound 1.265 µM), 0.541; in the experiment with VX-11e + Decitabine (first compound 4 µM) it was 0.547; in the experiment with VX-11e + Olaparib (first compound 0.04 µM) it was 0.635; with VX-11e + Olaparib (first compound 0.1265 µM), 0.662. In addition, the relative viability is 0.603 with VX-11e + Olaparib (first compound 0.4 µM); 0.629 in the experiment with VX-11e + Olaparib (first compound 1.265 µM); 0.534 with VX-11e + Olaparib (first compound 4 µM); 0.878 with VX-11e + Luminespib (first compound 0.04 µM); 0.639 with VX-11e + Luminespib (first compound 0.1265 µM); 0.566 with VX-11e + Luminespib (first compound 0.4 µM). Besides, the relative viability with VX-11e + Luminespib (first compound 1.265 µM) worked out at 0.802; with VX-11e + Luminespib (first compound 4 µM) it was 0.436.

For the cell line NCI-H3122, the relative viability with VX-11e + Lapatinib (first compound 0.04 µM) worked out at 1.07; in the experiment with VX-11e + Lapatinib (first compound 0.1265 µM) it was 0.98; with VX-11e + Lapatinib (first compound 0.4 µM), 0.855; with VX-11e + Lapatinib (first compound 1.265 µM) it was 0.892; with VX-11e + Lapatinib (first compound 4 µM), 0.626; in the experiment with VX-11e + Decitabine (first compound 0.04 µM), 0.418. The relative viability with VX-11e + Decitabine (first compound 0.1265 µM) was 0.484; with VX-11e + Decitabine (first compound 0.4 µM) it was 0.335; in the experiment with VX-11e + Decitabine (first compound 1.265 µM) it was 0.39; with VX-11e + Decitabine (first compound 4 µM) it was 0.209; with VX-11e + Olaparib (first compound 0.04 µM) it was 0.717; with VX-11e + Olaparib (first compound 0.1265 µM), 0.661. The relative viability came out at 0.689 in the experiment with VX-11e + Olaparib (first compound 0.4 µM); 0.558 with VX-11e + Olaparib (first compound 1.265 µM); 0.468 with VX-11e + Olaparib (first compound 4 µM); 0.0662 in the experiment with VX-11e + Luminespib (first compound 0.04 µM); 0.0869 in the experiment with VX-11e + Luminespib (first compound 0.1265 µM); 0.0911 in the experiment with VX-11e + Luminespib (first compound 1.265 µM). In the experiment with VX-11e + Luminespib (first compound 4 µM), the relative viability was found to be 0.0987.

Take HCC-15: the relative viability with VX-11e + Lapatinib (first compound 0.04 µM) worked out at 0.949; with VX-11e + Lapatinib (first compound 0.1265 µM) it was 0.849; with VX-11e + Lapatinib (first compound 0.4 µM) it was 0.38; in the experiment with VX-11e + Lapatinib (first compound 1.265 µM), 0.565; in the experiment with VX-11e + Lapatinib (first compound 4 µM), 0.288; with VX-11e + Decitabine (first compound 0.04 µM) it was 0.641. Also, the relative viability was determined as 0.603 in the experiment with VX-11e + Decitabine (first compound 0.1265 µM); 0.225 with VX-11e + Decitabine (first compound 0.4 µM); 0.338 in the experiment with VX-11e + Decitabine (first compound 1.265 µM); 0.274 with VX-11e + Decitabine (first compound 4 µM); 0.869 with VX-11e + Olaparib (first compound 0.04 µM); 0.794 with VX-11e + Olaparib (first compound 0.1265 µM). Moreover, the relative viability came out at 0.541 with VX-11e + Olaparib (first compound 1.265 µM); 0.398 with VX-11e + Olaparib (first compound 4 µM); 0.264 with VX-11e + Luminespib (first compound 0.04 µM); 0.363 in the experiment with VX-11e + Luminespib (first compound 0.1265 µM); 0.207 with VX-11e + Luminespib (first compound 0.4 µM); 0.18 with VX-11e + Luminespib (first compound 1.265 µM). In addition, the relative viability with VX-11e + Luminespib (first compound 4 µM) stood at 0.175.
